Laboratory results published in the NIST ThermoML archive (doi:10.1016/j.jct.2008.09.002).

Legend:
[1] = xn = mol fraction of the nth substance listed; details: 101.3 kPa, Liquid, Vibrating tube method
[2] = molar heat capacity at constant pressure; xn = mol fraction of the nth substance listed; details: 101.3 kPa, Liquid, Small sample (50 mg) DSC
[3] = excess molar enthalpy (molar enthalpy of mixing); xn = mol fraction of the nth substance listed; details: 303.15 K, 101.3 kPa, Liquid, Calvet calorimetry

CCCCCCn1cc[n+](C)c1.F[B-](F)(F)F [1-hexyl-3-methylimidazolium tetrafluoroborate] + C[N+](=O)[O-]
Details	mass density, [1] [kg/m3]	molar heat capacity at constant pressure, [2] [J/K/mol]
293.15 K, x1 = 0.098	1148.7	136.3
293.15 K, x1 = 0.1933	1150.7	166.4
293.15 K, x1 = 0.3062	1151.2	202.6
293.15 K, x1 = 0.3988	1151.1	232.4
293.15 K, x1 = 0.4936	1150.9	262.8
293.15 K, x1 = 0.5941	1150.5	295.4
293.15 K, x1 = 0.5973	1150.5	–
293.15 K, x1 = 0.6839	1150.1	–
293.15 K, x1 = 0.6917	1150	326.6
293.15 K, x1 = 0.7702	1149.8	351.4
293.15 K, x1 = 0.7767	1149.7	–
293.15 K, x1 = 0.786	1149.6	–
293.15 K, x1 = 0.8514	1149.3	–
293.15 K, x1 = 0.8665	1149.2	382.6
293.15 K, x1 = 0.8727	1149.2	–
298.15 K, x1 = 0.098	1143.2	136.7
298.15 K, x1 = 0.1933	1145.8	167
298.15 K, x1 = 0.3062	1146.7	203.5
298.15 K, x1 = 0.3988	1146.9	233.4
298.15 K, x1 = 0.4936	1146.8	264
298.15 K, x1 = 0.5941	1146.6	296.8
298.15 K, x1 = 0.5973	1146.6	–
298.15 K, x1 = 0.6839	1146.4	–
298.15 K, x1 = 0.6917	1146.2	328.3
298.15 K, x1 = 0.7702	1146.1	353.4
298.15 K, x1 = 0.7767	1146	–
298.15 K, x1 = 0.786	1146	–
298.15 K, x1 = 0.8514	1145.8	–
298.15 K, x1 = 0.8665	1145.7	384.8
298.15 K, x1 = 0.8727	1145.7	–
303.15 K, x1 = 0.098	1137.7	137.2
303.15 K, x1 = 0.1933	1140.9	167.7
303.15 K, x1 = 0.3062	1142.3	204.4
303.15 K, x1 = 0.3988	1142.7	234.5
303.15 K, x1 = 0.4936	1142.8	265.4
303.15 K, x1 = 0.5941	1142.8	298.3
303.15 K, x1 = 0.5973	1142.8	–
303.15 K, x1 = 0.6839	1142.6	–
303.15 K, x1 = 0.6917	1142.5	330
303.15 K, x1 = 0.7702	1142.5	355.4
303.15 K, x1 = 0.7767	1142.4	–
303.15 K, x1 = 0.786	1142.4	–
303.15 K, x1 = 0.8514	1142.3	–
303.15 K, x1 = 0.8665	1142.1	387
303.15 K, x1 = 0.8727	1142.2	–
308.15 K, x1 = 0.098	1132.1	137.7
308.15 K, x1 = 0.1933	1136	168.4
308.15 K, x1 = 0.3062	1137.8	205.3
308.15 K, x1 = 0.3988	1138.5	235.6
308.15 K, x1 = 0.4936	1138.8	266.7
308.15 K, x1 = 0.5941	1138.9	299.8
308.15 K, x1 = 0.5973	1138.9	–
308.15 K, x1 = 0.6839	1138.9	–
308.15 K, x1 = 0.6917	1138.8	331.7
308.15 K, x1 = 0.7702	1138.9	357.3
308.15 K, x1 = 0.7767	1138.8	–
308.15 K, x1 = 0.786	1138.8	–
308.15 K, x1 = 0.8514	1138.7	–
308.15 K, x1 = 0.8665	1138.6	389.1
308.15 K, x1 = 0.8727	1138.6	–
313.15 K, x1 = 0.098	1126.6	138.3
313.15 K, x1 = 0.1933	1131.1	169.2
313.15 K, x1 = 0.3062	1133.4	206.3
313.15 K, x1 = 0.3988	1134.3	236.9
313.15 K, x1 = 0.4936	1134.8	268.2
313.15 K, x1 = 0.5941	1135.1	301.3
313.15 K, x1 = 0.5973	1135.1	–
313.15 K, x1 = 0.6839	1135.2	–
313.15 K, x1 = 0.6917	1135.1	333.4
313.15 K, x1 = 0.7702	1135.3	359.2
313.15 K, x1 = 0.7767	1135.2	–
313.15 K, x1 = 0.786	1135.2	–
313.15 K, x1 = 0.8514	1135.2	–
313.15 K, x1 = 0.8665	1135.1	391.3
313.15 K, x1 = 0.8727	1135.1	–
318.15 K, x1 = 0.098	1121	138.8
318.15 K, x1 = 0.1933	1126.2	169.9
318.15 K, x1 = 0.3062	1129	207.3
318.15 K, x1 = 0.3988	1130.2	238.1
318.15 K, x1 = 0.4936	1130.9	269.6
318.15 K, x1 = 0.5941	1131.3	302.8
318.15 K, x1 = 0.5973	1131.3	–
318.15 K, x1 = 0.6839	1131.5	–
318.15 K, x1 = 0.6917	1131.4	335
318.15 K, x1 = 0.7702	1131.6	361.1
318.15 K, x1 = 0.7767	1131.6	–
318.15 K, x1 = 0.786	1131.6	–
318.15 K, x1 = 0.8514	1131.7	–
318.15 K, x1 = 0.8665	1131.6	393.4
318.15 K, x1 = 0.8727	1131.6	–

[3]
Details	excess molar enthalpy [kcal/mol]
x1 = 0.1	-0.0174
x1 = 0.2074	-0.0296
x1 = 0.3028	-0.0349
x1 = 0.4096	-0.0382
x1 = 0.5095	-0.038
x1 = 0.6072	-0.0342
x1 = 0.7148	-0.027
x1 = 0.7891	-0.0225
x1 = 0.8821	-0.012

C[N+](=O)[O-] [nitromethane] + CCCCn1cc[n+](C)c1.O=S(=O)([O-])C(F)(F)F
Details	mass density, [1] [kg/m3]	molar heat capacity at constant pressure, [2] [J/K/mol]
293.15 K, x2 = 0.0495	1173.6	121.1
293.15 K, x2 = 0.0972	1196.4	136
293.15 K, x2 = 0.2021	1229.9	168.8
293.15 K, x2 = 0.2955	1249.1	198.5
293.15 K, x2 = 0.4015	1264.3	231.5
293.15 K, x2 = 0.495	1274.2	261.4
293.15 K, x2 = 0.5993	1282.6	294.6
293.15 K, x2 = 0.6939	1288.6	324.4
293.15 K, x2 = 0.7858	1293.3	353.8
293.15 K, x2 = 0.8697	1296.9	380.5
293.15 K, x2 = 0.9286	1299.1	398.8
298.15 K, x2 = 0.0495	1167.4	121.4
298.15 K, x2 = 0.0972	1190.6	136.4
298.15 K, x2 = 0.2021	1224.7	169.4
298.15 K, x2 = 0.2955	1244.2	199.4
298.15 K, x2 = 0.4015	1259.7	232.6
298.15 K, x2 = 0.495	1269.7	262.6
298.15 K, x2 = 0.5993	1278.2	296.1
298.15 K, x2 = 0.6939	1284.3	326.1
298.15 K, x2 = 0.7858	1289.1	355.6
298.15 K, x2 = 0.8697	1292.8	382.7
298.15 K, x2 = 0.9286	1295.1	400.9
303.15 K, x2 = 0.0495	1161.2	121.8
303.15 K, x2 = 0.0972	1184.8	137
303.15 K, x2 = 0.2021	1219.4	170.1
303.15 K, x2 = 0.2955	1239.3	200.3
303.15 K, x2 = 0.4015	1255	233.9
303.15 K, x2 = 0.495	1265.2	263.9
303.15 K, x2 = 0.5993	1273.9	297.8
303.15 K, x2 = 0.6939	1280.1	327.9
303.15 K, x2 = 0.7858	1285	357.5
303.15 K, x2 = 0.8697	1288.8	385
303.15 K, x2 = 0.9286	1291.1	403.3
308.15 K, x2 = 0.0495	1154.9	122.3
308.15 K, x2 = 0.0972	1178.9	137.5
308.15 K, x2 = 0.2021	1214.2	170.9
308.15 K, x2 = 0.2955	1234.3	201.4
308.15 K, x2 = 0.4015	1250.3	235.2
308.15 K, x2 = 0.495	1260.7	265.3
308.15 K, x2 = 0.5993	1269.6	299.5
308.15 K, x2 = 0.6939	1275.9	329.8
308.15 K, x2 = 0.7858	1280.9	359.6
308.15 K, x2 = 0.8697	1284.7	387.4
308.15 K, x2 = 0.9286	1287.1	405.7
313.15 K, x2 = 0.0495	1148.8	122.8
313.15 K, x2 = 0.0972	1173.2	138.2
313.15 K, x2 = 0.2021	1209	171.7
313.15 K, x2 = 0.2955	1229.5	202.5
313.15 K, x2 = 0.4015	1245.7	236.6
313.15 K, x2 = 0.495	1256.3	266.8
313.15 K, x2 = 0.5993	1265.3	301.3
313.15 K, x2 = 0.6939	1271.7	331.8
313.15 K, x2 = 0.7858	1276.8	361.8
313.15 K, x2 = 0.8697	1280.7	389.9
313.15 K, x2 = 0.9286	1283.1	408.3
318.15 K, x2 = 0.0495	1142.5	123.3
318.15 K, x2 = 0.0972	1167.4	138.7
318.15 K, x2 = 0.2021	1203.7	172.5
318.15 K, x2 = 0.2955	1224.6	203.6
318.15 K, x2 = 0.4015	1241.1	238
318.15 K, x2 = 0.495	1251.8	268.3
318.15 K, x2 = 0.5993	1261	303.2
318.15 K, x2 = 0.6939	1267.5	334
318.15 K, x2 = 0.7858	1272.7	364.1
318.15 K, x2 = 0.8697	1276.7	392.6
318.15 K, x2 = 0.9286	1279.1	411.1

[3]
Details	excess molar enthalpy [kcal/mol]
x2 = 0.1022	0.00932
x2 = 0.1994	0.0136
x2 = 0.3029	0.0148
x2 = 0.4044	0.0141
x2 = 0.5067	0.0134
x2 = 0.5931	0.0108
x2 = 0.703	0.00741
x2 = 0.7814	0.0012
x2 = 0.8933	-0.00215
